For one test, the target named is T1, 5-lipoxygenase (Rattus norvegicus, UniProt P12527).
T1 construct: The supernatant, aliquoted and stored at -70° C., was used as the source of 5-lipoxygenase activity; endogenous in cells; host or cells: Rat basophilic leukemia (RBL) cells, 10,000×g supernatant of the sonicate (crude, not purified)
T1 sequence (P12527 1-673): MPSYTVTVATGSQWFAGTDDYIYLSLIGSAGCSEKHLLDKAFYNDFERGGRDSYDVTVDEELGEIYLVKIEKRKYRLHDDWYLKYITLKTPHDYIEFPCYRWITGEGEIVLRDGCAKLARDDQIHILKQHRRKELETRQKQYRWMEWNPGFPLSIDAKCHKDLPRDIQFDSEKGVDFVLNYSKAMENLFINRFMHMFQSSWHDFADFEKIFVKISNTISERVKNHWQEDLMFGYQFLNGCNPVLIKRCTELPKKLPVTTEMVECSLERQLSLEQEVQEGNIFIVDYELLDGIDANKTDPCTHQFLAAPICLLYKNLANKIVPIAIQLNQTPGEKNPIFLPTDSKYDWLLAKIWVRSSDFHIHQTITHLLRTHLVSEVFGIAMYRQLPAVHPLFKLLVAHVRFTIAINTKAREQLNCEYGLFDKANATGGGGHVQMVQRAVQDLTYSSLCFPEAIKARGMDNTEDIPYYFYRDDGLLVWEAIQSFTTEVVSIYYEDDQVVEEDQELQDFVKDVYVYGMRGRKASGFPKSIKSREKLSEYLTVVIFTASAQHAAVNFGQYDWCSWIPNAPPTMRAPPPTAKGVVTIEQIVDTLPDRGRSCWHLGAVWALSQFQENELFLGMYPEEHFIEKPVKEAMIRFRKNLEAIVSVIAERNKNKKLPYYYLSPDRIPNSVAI
The experiment in a line: Arachidonate 5-lipoxygenase inhibition in Rat Basophilic Leukemia Cells Supernatant. In kind it is biochemical. On the set-up: dose or concentration left out as unconfirmed. The settings on record: Column A; 5-HPETE and LTB4 formation; read-out: 5-lipoxygenase inhibition in RBL cells supernatant, % inhibition.

The subject of test [1] is Dextran-induced edema formation in the ears of mice. As to the kind of experiment: Inhibition of Dextran-induced edema formation in the ears of mice. The settings on record: Mus musculus, po, Column B, at 10 mg/kg body weight, 1 h before dextran, read-out: inhibition of Dextran-induced blueing of the ears of mice, % inhibition. The class given is in vivo, male Swiss mice. The text has this:
Inhibition of Dextran-induced edema formation in the ears of mice.
Intravenous injection of Dextran T500® (Pharmacia) and pontamine sky-blue dye into mice results in increased vascular permeability and edema formation, characterized by an intense blueing of the ears. Determination of the amount of extravasated dye is presumed to yield a quantitative measure of the 5-lipoxygenase inhibiting activity of the test compounds (Drug. Dev. Res. 8, 213-218, 1986). Unfasted male Swiss mice weighing 24-26 g were used in the experiments which were performed between 13.00 pm and 17.00 pm at an ambient temperature of 22±1° C. The mice were treated orally with a test compound of formula (I) dissolved in a volume of […] of either polyethyleneglycol (PEG 200) or hydroxypropyl cyclodextrine at doses varying between 1.25 and 40 mg per kg bodyweight. In control experiments the mice were administered an identical amount of solvent alone. One hour after treatment there was injected intravenously an isotonic saline solution containing 60 mg/ml Dextran T500® and 13 mg/ml pontamine sky-blue dye in a volume of 0.1 ml per 10 g bodyweight. One hour and forty-five minutes later the animals were sacrificed by ether and their ears were removed. Extraction and quantification of the extravasated dye were performed as described (Drug Dev. Res. 8, 213-218, 1986). The calculated percentage of inhibition of ear blueing upon administration of a compound of formula (I) at a dose of 10 mg/kg bodyweight is shown in the second column of table 12.

Consider `CCCCN1C(=O)N(c2ccc(N3CCN(c4ccc(O)cc4)CC3)cc2)C(C)(C)C1=O` [Compound 6.10], for which the inhibition on 5-lipoxygenase was determined as 90%. Also, the inhibition in vivo at 10 mg/kg in test [1] came to 93%.
On to `CC(C(=O)c1cccc(Cl)c1)n1ncn(-c2ccc(N3CCN(c4ccc(O)cc4)CC3)cc2)c1=O` (centres unmarked) [Compound 7.37], for which, at 5-lipoxygenase, the inhibition was found to be 100%. Also, in test [1], the inhibition in vivo at 10 mg/kg was 73%.
The like results for `CC(=O)C(C)N1C(=O)N(c2ccc(N3CCN(c4ccc(O)cc4)CC3)cc2)C(=O)C1(C)C` (centres unmarked) [Compound 5.08] were, in that order, 45% and 76%.
In the case of `Cc1cc(N2CCN(c3ccc(-n4c(C)nn(C(C)C(O)c5ccc(Br)cc5)c4=O)cc3)CC2)cc(C)c1O` (centres unmarked) [Compound 7.54, 2-[2-(4-bromophenyl)-2-hydroxy-1-methylethyl]-2,4-dihydro-4-[4-[4-(4-hydroxy-3,5-dimethylphenyl)-1-piperazinyl]phenyl]-5-methyl-3H-1,2,4-triazol-3-one], the inhibition on 5-lipoxygenase came to 79%. Also, in test [1], the inhibition in vivo at 10 mg/kg came out at 76%.
In the case of `O=C1CCCCC1n1ncn(-c2ccc(N3CCN(c4ccc(O)cc4)CC3)cc2)c1=O` (centres unmarked) [Compound 7.18], the inhibition at 5-lipoxygenase came out at 67%. The inhibition in vivo at 10 mg/kg in test [1] worked out at 87%.
In the case of `Cc1nn(CC(C)C)c(=O)n1-c1ccc(N2CCN(c3ccc(O)cc3)CC2)cc1` [Compound 7.34], the inhibition at 5-lipoxygenase is 87%. Also, the inhibition in vivo at 10 mg/kg in test [1] was found to be 66%.
On to `CC(C(=O)c1ccc(Cl)cc1)n1ncn(-c2ccc(N3CCN(c4ccc(O)cc4)CC3)cc2)c1=O` (centres unmarked) [Compound 7.15], for which, at 5-lipoxygenase, the inhibition was found to be 51%. Further, the inhibition in vivo at 10 mg/kg in test [1] was 97%.

The values are drawn from patent US4931444A, “5-lipoxygenase inhibiting 4-(4-phenyl-1-piperazinyl)phenols” (Janssen Pharmaceutica N.V., priority 1989, dated 1990).
